Earlier results in US20230111568A1, “SOLID DISPERSIONS OF RIFAXIMIN FOR THE TREATMENT OF OVERT HEPATIC ENCEPHALOPATHY” (Bausch Health Ireland Limited, priority 2020, published 2023).

Test system: complications of cirrhosis

CO[C@H]1/C=C/O[C@@]2(C)Oc3c(C)c(O)c4c(O)c(c5c(nc6cc(C)ccn65)c4c3C2=O)NC(=O)/C(C)=C\C=C\[C@H](C)[C@H](O)[C@@H](C)[C@@H](O)[C@@H](C)[C@H](OC(C)=O)[C@@H]1C [rifaximin]
HE recurrences, hospitalizations, adverse events, survival (literature (Conf. Proc. IEEE Eng. Med. Biol. Soc. 2013)): protect from HE recurrences with decreased HE-related and all-cause hospitalizations without an increased rate of adverse events (AEs) or decreased survival
overall rates of infection, antibiotic use and other complications of cirrhosis (literature (Conf. Proc. IEEE Eng. Med. Biol. Soc.)): reduces or maintains the overall rates of infection, antibiotic use, and other complications of cirrhosis such as ascites
survival and risk of variceal bleeding, HE, SBP or HRS (literature (Journal of Gastroenterology and Hepatology 28(3))): independently associated with higher survival and lower risk of developing variceal bleeding, HE, SBP, or HRS
